Test results published in patent publication US12213479B2, “Monoterpenoid/phenylpropanoid-containing compounds and methods of their making and use as herbicides” (KITTRICH CORPORATION, priority 2016, dated 2025).
“Also recorded” adds a separate entry of the source.

How the values were obtained:
[1] = test system: soybeans; assay: Germination assay, soybeans coated with compound; type: in vivo, soybean; conditions: beans coated in 1% weight compound/weight bean
Excerpt: Soybeans were susceptible to Aphis glycines infestation and were not determined to be a biotype that was resistant to infestation, which could confide results. Germination typically occurred between 3-5 days after moistening.

[2] = test system: Corn; assay: Pre-emergence assay, corn; type: in vivo; conditions: for pre-emergent effect on corn (words): 1%, 3-weeks after application; for qualitative growth assessment, pre-emergence: Corn, soil treated with 40 ml of 1% solution 1 day after planting, 3 weeks after application
Procedure: Corn plants were planted under ½″ of potting soil and watered every 2-3 days as necessary. Plants were grown in potting plants (6″ wide×4.5″ deep) with approximately 800 mL of soil for each plant. Plants germinated approximately 4-7 days after being planted. Plants were grown in a greenhouse under a constant temperature and light environment (25±5° C., 12 hr: 12 hr light: dark cycle).
1-day after seeds/beans were planted, soil was drenched with 40 ml of formulation with 1% active ingredient. This was done to assess germination inhibition in the soil. […] Qualitative growth assessment was made by comparing the treated plants to the untreated controls.

[3] = test system: Pigweed (Amaranthus palmeri); assay: Weed soil drench assay, pigweed; type: in vivo; conditions: for Percentage mortality: Pigweed, 40 mL of 5% solution, soil drench; for chlorosis and phytotoxicity: pigweed, 40 ml of 5%, 2 days after application
Procedure: Pigweed plants were obtained from the wild in prairie fields in Iowa. Plants were carefully transplanted into pots (6″ wide×4.5″ deep) with approximately 800 mL of soil for each plant. Plants were maintained in a greenhouse under a constant temperature and light environment (25±5° C., 12 hr: 12 hr light: dark cycle). Plants were watered every 2-3 days as needed.
(§1) Formulations of the various active ingredients were created using the monoterpenoid derivatives, potassium hydroxide, and Triton-X 100™ to aid in the solvation of the active ingredient. Formulations included 5% active ingredient by weight (0.5-1 g/100 ml water), with a 1:1 molar ratio of potassium hydroxide used to aid in the solvation (135-269 mg/100 mL for both thymyloxyacetic acid and carvacryloxyacetic acid). […] Observations were performed 2 days and 3 weeks after soil drench to determine the effects of the treatments on the various types and stages of plants. Phytotoxicity is reported as percentage of total plants treated compared to a control treatment that was exposed to a similar formulation (without the active monoterpenoid derivatives).

[4] = test system: Velvetleaf (Abutilon theophrasti); assay: Weed soil drench assay, velvetleaf; type: in vivo; conditions: for Percentage mortality: Velvet Leaf, 40 mL of 5% solution, soil drench; for chlorosis and phytotoxicity: velvet leaf, 40 ml of 5%, 2 days after application
Procedure: Velvetleaf plants were obtained from the wild in prairie fields in Iowa. Plants were carefully transplanted into pots (6″ wide×4.5″ deep) with approximately 800 mL of soil for each plant. Plants were maintained in a greenhouse under a constant temperature and light environment (25±5° C., 12 hr: 12 hr light: dark cycle). Plants were watered every 2-3 days as needed.
as §1

[5] = test system: Palmer Amaranth (Amaranthus palmeri); assay: Toxicity assay (probit LC50), Palmer amaranth; type: in vivo
Excerpt: Palmer amaranth seeds were obtained from the Department of Agronomy at Iowa State University. Individual seeds were sown for each pot (1.5″ wide×3″ deep) with approximately 7.5 g of soil for each plot. Five seeds/plot were sown into numerous plots. After one month of germination, germinated plants were counted in each plot and this number was used for the total number of plants challenged per plot in the toxicity assessment
(§2) The total number of plants were counted in each plot in 24×6 hexagonal small plot planter tray. The number of germinated seeds in each plot was enumerated after one month, and for each plot this number was recorded and used as the total for each plot. Differing concentrations of thymyloxyacetic acid was applied in 5% Triton-X 100 and 1:1 molar ratio potassium hydroxide:thymyloxyacetic acid to aid in the solubility of the compound in water. Ten mL of solution was applied to each plot, and the mortality of the plants was assessed at 3 days and 2 weeks post application (for some treatments). Mortality at these time points were enumerated out of the total plants germinated in each plot at the beginning of the assay. At both time points, the total number of dead plants and total number of plants at the beginning of the assay were recorded for each observation. A Probit model was used to calculate the LC50 values for each of the compounds explored in this assay. A formulation control (with no active ingredient) was screened against a number of plants and factored into the final probit model. This formulation control had little-to-no effect by itself.

[6] = test system: Waterhemp (Amaranthus tuberculatus); assay: Toxicity assay (probit LC50), waterhemp; type: in vivo
Excerpt: Waterhemp seeds were obtained from the Department of Agronomy at Iowa State University. Individual seeds were sown for each pot (1.5″ wide×3″ deep) with approximately 7.5 g of soil for each plot. Five seeds/plot was sown into numerous plots. After one month of germination, germinated plants were counted in each plot and this number was used for the total number of plants challenged per plot in the toxicity assessment.
as §2

[7] = test system: Cocklebur (Xanthium spp.); assay: Toxicity assay (probit LC50), cocklebur; type: in vivo
Excerpt: Cocklebur burs were obtained from the Department of Agronomy at Iowa State University. Individual seeds were sown for each pot (1.5″ wide×3″ deep) with approximately 7.5 g of soil for each plot. One bur/plot was sown into numerous plots. After one month of germination, germinated plants were counted in each plot and this number was used for the total number of plants challenged per plot in the toxicity assessment.
as §2

[8] = test system: various dicot weed species; assay: Selectivity assessment, dicot weed species compared to bluegrass; type: in vivo; conditions: range over various weed species
Excerpt: Kentucky bluegrass seeds were purchased in a bag under the commercial name of. Individual seeds were sown for each pot (1.5″ wide×3″ deep) with approximately 7.5 g of soil for each plot. 10 seeds/plot was sown into numerous plots. After one month of germination, germinated plants were counted in each plot and this number was used for the total number of plants challenged per plot in the toxicity assessment.
as §2, with “A formulation control (with no active ingredient) was screened against a number of plants and factored into the final probit model. This formulation control had little-to-no effect by itself.” left out

[9] = test system: treated weeds from each species; assay: Weed soil drench assay, all treated weed species; type: in vivo; conditions: 5% soil drench; observed at two days after the initial treatment
Procedure: as §1

[10] = test system: Soybean plants; assay: Soil drench assay, soybean plants; type: in vivo; parameters: key: NOE: No Observable Effect; XXX: Dead; -: the lowest phytotoxic effect; --: phytotoxicity that did not result in death; ---: phytotoxicity that did not result in death; ------: the highest; conditions: 3-weeks after treatment, Old Plants, 7%, 40 mL
[11] = test system: Wood sorrel; assay: Foliar spray, wood sorrel; type: in vivo; conditions: 20 sprays of 1%; observed 2 days after exposure and later
Procedure: Wood sorrel on the ground of the greenhouse was also treated with active ingredient in order to better assess the effects of foliar treatments on multiple plant species. A patch of wood sorrel was (approximately 4′×3′) was treated with 20 sprays (mist setting) from a MAINStays ironing spray bottle. Effects of the spray were recorded 2 days after exposure.

Compound	inhibition of soybean germination/growth (words) [1]	pre-emergent effect on corn (words) [2]	qualitative growth assessment, pre-emergence [2]	Percentage mortality ([3]; 2-days after treatment) [%]	Percentage mortality ([3]; 3-weeks after treatment) [%]	chlorosis and phytotoxicity [3]	Percentage mortality ([4]; 2-days after treatment) [%]	Percentage mortality ([4]; 3-weeks after treatment) [%]	chlorosis and phytotoxicity [4]	treated weeds killed, each species [9] [%]	phytotoxicity (qualitative), soil drench [10]	further results
Cc1ccc(C(C)C)c(OCC(=O)O)c1 [thymyloxyacetic acid, 2-(2-isopropyl-5-methylphenoxy)acetic acid]	prevented the growth of soybeans	significantly inhibited; also recorded: capable of inhibiting the growth	−	100	100	significant chlorosis and phytotoxicity	100	100	significant chlorosis and phytotoxicity	100	XXX	LC50 Value ([5]; Palmer Amaranth (Table 6)): 1700 ppm; Selective Toxicity Compared to Bluegrass ([5]; Palmer Amaranth compared to bluegrass): 2.06; LC50 Value ([5]; Palmer Amaranth, 2-week post application, probit): 1350 ppm; LC50 Value ([5]; Palmer Amaranth, 3-day post application, probit): 1700 ppm; LC50 Value ([6]; Waterhemp): 700 ppm; Selective Toxicity Compared to Bluegrass ([6]; Waterhemp compared to bluegrass): 5; LC50 Value ([7]; Cocklebur): 1530 ppm; Selective Toxicity Compared to Bluegrass ([7]; Cocklebur compared to bluegrass): 2.29; selectivity ratio compared to a blue grass species [8]: 2.06-5 fold
Cc1ccc(C(C)C)cc1OCC(=O)O [carvacryloxyacetic acid, 2-(5-isopropyl-2-methylphenoxy)acetic acid]	prevented the growth of soybeans	significant inhibition in corn growth	− −	100	100	significant chlorosis and phytotoxicity	100	100	significant chlorosis and phytotoxicity	100	XXX	phytotoxic effect on wood sorrel, foliar spray [11]: Death followed quickly after 2 days post-exposure; also recorded: immediate and widespread chlorosis followed by relatively quick plant death; pre-emergent effect on corn (words) ([2]; listed as Carvacryloxyacetic acid): significantly inhibited the growth
